Measured values as given in US12318369B2, “Analgesic and antipruritic pharmacertical composition and application thereof” (KEVICI (SHANGHAI) PHARMACEUTICAL CO., LTD., priority 2020, dated 2025).
Entries after “also recorded” stand apart in the source; their conditions may differ.

Legend:
[1] = system: neuropathic pain patients; details: clinical use; cited from earlier work
[2] = system: SNI-induced neuropathic pain C57/BJ6 mice; test: SNI-induced neuropathic pain mouse model, mechanical pain threshold (PWT) by Von Frey; assay type: in vivo
Description: C57/BJ6 mice aged 5-6 weeks were purchased from Shanghai SLAC Laboratory Animal Co., Ltd and fed for 6 months. After that, the mice were placed in a transparent plexiglass chamber on an iron support. 30 minutes later, the baseline mechanical threshold (paw withdrawal threshold, PWT) of the mice was detected by Von Frey (DanMicGlobal, CA, USA). The average threshold of the mice was 1.54+0.07 g (see FIG. 1). The spared nerve injury (SNI)-induced neuropathic pain C57/BJ6 mouse model was established according to Pertin, M et al (Pertin, M., Gosselin, RD., Decosterd, I. (2012). The Spared Nerve Injury Model of Neuropathic Pain. In: Luo, Z. (eds) Pain Research. Methods in Molecular Biology, vol 851. Humana Press). The SNI-induced neuropathic pain mice were measured for the mechanical pain threshold using Von Frey respectively at 2 weeks, 4 weeks and 6 weeks post operation.
The mechanical pain threshold of mice was tested 1 hour after injection. […] Among them, the mice with poor response (ΔPWT≤ 0.2 g) accounted for 10% (2/20) of all tested mice.
20 μg/kg GNE-0439 and 90 μg/kg PF-04885614 were intraperitoneally injected into SNI mice at 6 weeks post operation. One hour later, the mechanical threshold of mice was measured using Von Frey.

[3] = system: subjects with painful diabetic peripheral neuropathy; details: randomised, placebo-controlled, double-blind clinical study; cited from earlier work
[4] = Side effects observed in SNI mice after intraperitoneal injection

SMILES: CC(C)C[C@H](CN)CC(=O)O [Pregabalin]
- accompanying side effects in patients [1]: sedation effects (such as drowsiness, fatigue and dizziness)

SMILES: CC(C)(N)c1ncc(-c2ccc(OC(F)(F)F)cc2)[nH]1 [PF-04885614]
- mice with poor response (ΔPWT≤0.2 g) ([2]; 45 μg/kg i.p., 2 weeks post operation (2/18)): 11.1%
- threshold increase compared with the control group ([2]; 45 μg/kg i.p., 4 weeks post operation): no statistically significant difference
- mice with poor response (ΔPWT≤0.2 g) ([2]; 45 μg/kg i.p., 4 weeks post operation (10/19)): 52.6%
- mice with poor response (ΔPWT≤0.2 g) ([2]; 45 μg/kg i.p., 6 weeks post operation (13/17)): 76.5%
- increase of mechanical pain threshold (ΔPWT) ([2]; 45 μg/kg i.p., SNI mice 2 weeks post operation): 0.86 ± 0.14 g
- increase of mechanical pain threshold (ΔPWT) ([2]; 45 μg/kg i.p., SNI mice 4 weeks post operation): 0.21 ± 0.04 g
- increase of mechanical pain threshold (ΔPWT) ([2]; 45 μg/kg i.p., SNI mice 6 weeks post operation): 0.10 ± 0.04 g
- fraction of PF-05089771 poor responders that well responded ([2]; 90 μg/kg PF-04885614, 6 weeks post SNI operation): half

SMILES: CCCC1CCC(c2ccc(C(=O)N[C@H](C(=O)O)C(C)C)cc2)CC1 (stereo partly shown) [GNE-0439]
- ΔPWT ([2]; single administration, 20 μg/kg i.p., SNI mice 6 weeks post operation, one hour after injection): 0.77 ± 0.14 g

SMILES: Nc1n[nH]cc1-c1cc(Cl)ccc1Oc1cc(F)c(S(=O)(=O)Nc2cscn2)cc1Cl [PF-05089771]
- mice with poor response (ΔPWT≤0.2 g) ([2]; 2 mg/kg i.p., 2 weeks post operation (2/20)): 10%
- mice with poor response (ΔPWT≤0.2 g) ([2]; 2 mg/kg i.p., 4 weeks post operation (10/24)): 41.7%
- mice with poor response (ΔPWT≤0.2 g) ([2]; 2 mg/kg i.p., 6 weeks post operation (16/28)): 57.1%
- increase of mechanical pain threshold (ΔPWT) ([2]; 2 mg/kg i.p., SNI mice 2 weeks post operation, 1 hour after injection): 0.77 ± 0.10 g
- increase of mechanical pain threshold (ΔPWT) ([2]; 2 mg/kg i.p., SNI mice 4 weeks post operation, 1 hour after injection): 0.39 ± 0.07 g
- increase of mechanical pain threshold (ΔPWT) ([2]; 2 mg/kg i.p., SNI mice 6 weeks post operation, 1 hour after injection): 0.17 ± 0.03 g
- fraction of total mice that poorly responded (ΔPWT≤0.2 g) ([2]; 2 mg/kg, 6 weeks post SNI operation (8/12, Table 1)): 2/3
- efficacy in treatment of diabetic neuropathic pain [3]: poor efficacy

SMILES: NCC1(CC(=O)O)CCCCC1 [Gabapentin]
- effect on mechanical pain of SNI mice ([2]; 100 mg/kg i.p., 6 weeks post operation): relieve effect
- accompanying side effects in patients [1]: sedation effects (such as drowsiness, fatigue and dizziness)
- side effects ([4]; 100 mg/kg Gabapentin): sedative side effects

SMILES: COc1ccc(Cl)c(-c2ccc(NC(=O)c3ccnn3C)nc2N)c1 [PF-04531083]
- side effects ([4]; 10 mg/kg PF-04531083 (effective dose)): obvious side effects such as sedation and weight loss; also recorded: significant side effects such as sedation and weight loss
